# pIC50: −log10 of the molar value. “Also recorded” adds a separate entry of the source.
# Columns and labels:
# [1] = Cecal ligation and puncture model in mice; format: in vivo, BALBc mice
# Procedure: The cecal ligation puncture (“CLP”) procedure was derived from a modification of standard methods previously described (Opal S M, et al., Shock 15(4):285-290, 2001). Female, non-pregnant, specific pathogen-free, Albino BALBc mice (20-25 gm) were used in the experiment. […] Animals were allowed to eat and drink sterile water on an ad libitum basis until 12 h before surgery when food was withheld until after the surgical procedure.
# Anesthetized animals (methoxyflurane, Mallinckodt Veterninary Inc., Mundeline, Ill.) had the abdominal skin shaved and a midline, abdominal incision was made. The cecum was exteriorized and distended using intraluminal contents from the colon. The cecum was then ligated below the ileocecal valve and punctured twice using a 23-gauge sterile needle. The cecum was returned to the peritoneal cavity and the transversalis fascia was closed along with the skin incision. The skin incision was covered with topical bacitracin ointment. The animals were given a single […] dose of trovafloxacin (20 mg/kg IM) immediately post-operatively and a 1-mL subcutaneous dose of PBS was given as fluid resuscitation. […] All animals underwent necropsy examination for histological evidence of organ injury, pathology scoring of intestinal mucosa, and quantitative bacteriology.
# Differences in survival time between groups were analyzed by Kaplan-Meier survival plots and log-rank testing. Other parameters were measured using a Mann-Whitney U-Test for 2 groups or the Kruskal-Wallis one way analysis of variance for 3 or more groups. A p value of <0.05 was considered significant. All data is presented as mean and standard deviation.
# IL-6 = IL-6 expression (ELISA) in Ad5-wt-ERα infected HAECT-1 cells (Table 1); format: cell-based, human
# [2] = tested on: Pseudomonas aeruginosa 12.4.4; assay: Neutropenic rat model of Pseudomonas sepsis; format: in vivo, Sprague-Dawley rats
# Procedure: The neutropenic rat model of pseudomonas sepsis has been previously described (Opal S M, et al., Shock 15(4):285-290, 2001). The experiments were conducted in specific pathogen-free female, Albino, Sprague-Dawley rats (Charles River Breeding Laboratories, Wilmington, Mass.) weighing 150-200 grams at the beginning of the experiments. Animals were treated with cefamandole (100 mg/kg intramuscularly daily) followed by oral colonization with Pseudomonas aeruginosa 12.4.4 (immunotype 6, A. McManus, San Antonio, Tex.) by orogastric feeding of 10^6 bacterial colony forming units at time 0, 48, and 96 hours.
# Cyclophosphamide (Bristol-Myers, Evansville, Ind.) was given intraperitoneally at a dose of 150 mg/kg at time 0, and 50 mg/kg interperitoneally at 72 hours. Animals were followed daily with clinical examination of body temperature using a non-contact, digital, infrared thermometer (Horiba Instruments-Marksen Sciences, Phoenix, Ariz.) and body weight. Compound 67 (50 mg/kg) or corn oil control (n=12 in both groups) was administered orally by orogastric feeding beginning on day 4 after the first dose of cyclophosphamide and continuing for 8 days for the survival study. In an additional set of experiments, compound 1 (50 mg/kg) or control (n=8 in both groups) was administered every other day (day 4, 6, 8) and animals were sacrificed at day 8 for histopathologic studies. The distal 10 centimeters of ileum were resected and used for histopathological examination. The lumen was washed with phosphate buffered saline to remove residual particulate material prior to analysis and fixation. The mucosal surface epithelium was sampled for electromicroscopic studies and placed in gluteraldehyde fixative at the time of sacrifice. A 10 mm segment of ileal tissue was utilized for mucosal mass measurement.
# Animals were assessed clinically and pathologically by daily body weight, body temperature, presence of bacteremia, circulating endotoxin levels, and pathologic evidence of damage to the gastrointestinal epithelium and liver by light microscopy and electron microscopy. The investigators performing the animal experiments were not blinded to the treatment assignment; however, an independent pathologist who was unaware of the treatment assignment for each animal performed the light microscopy and electron microscopy interpretation. A pathological injury scale of 0-4 was used to assess the degree of mucosal thinning, ulceration, and disruption.
# ERβ = assay: Reporter activity in HAECT-1 cells expressing ERβ; format: cell-based, human; conditions: FIG. 1C
# Procedure: (A) The effect of compound 67 on NF-κB mediated luciferase reporter activity in HAECT-1 cells expressing ERα. […] (C) The effect of compound 67 on the human IL-6 promoter luciferase reporter activity in HAECT-1 cells expressing either ERα (squares) or ERβ (diamonds). (D) The remaining lysate from (A) was used to determine CK activity.
# HAECT-1 cells (Chadwick C C, et al., Proc Natl Acad Sciences, 2005, 102(7): 2543-2548) were cultured in EGM (GIBCO, Rockville, Md.) containing 10% FBS, 1% GlutaMAX and 0.1% Antimycotic-Antibiotic in Falcon T-175 culture flasks at 34° C. in 5% CO2 and infected for four hours with Ad5-wt-ER virus. After overnight recovery, the cells were infected for 2 hours with the Ad5-3x(NFκB).Luc or Ad5-IL6.Luc virus. Compound 67 and 2 ng/ml IL-1 were added to the cells for 15-20 h and the cell lysate was assayed for luciferase activity and evaluated for CK expression (Stanbio Laboratories, Texas). The values are reported as mean±SEM with n=4 from at least 3 independent experiments.
compound,measurement,setting,value
"COc1ccccc1[C@H](c1cccc2ccccc12)[C@@](C)(C#N)C(=O)N1CCC(c2cccc(C(F)(F)F)c2)CC1 [Example 67, (S,S)-3-(2-methoxyphenyl)-2-methyl-3-(1-naphthyl)-2-({4-[3-(trifluoromethyl)phenyl]piperidin-1-yl}carbonyl)propanenitrile]",survival vs vehicle control (Kaplan-Meier),"[1]; 50 mg/kg at 0, 24 and 48 hours after CLP, 7 days, FIG. 5",significant survival advantage; also recorded: significantly greater than control
same,histopathologic scores of small bowel intestinal mucosa,"[1]; 50 mg/kg, p<0.05 vs vehicle control",significant preservation of mucosal integrity
same,systemic cytokine release and endotoxin levels,"[1]; 50 mg/kg, vs vehicle control, p=ns",did not differ
same,pIC50,"IL-6; Homo sapiens, HAECT1, Ad5-wt-ERα infected HAECT-1 cells, IL-1 stimulated, read-out: Interleukin-6 IC50",7.46
same,Interleukin-6 Efficacy,IL-6; relative to the maximal inhibition observed with E2,45%
same,"electron microscopy of small intestinal enterocyte architecture, tight junctions, organelle structure",[2]; 50 mg/kg,greater preservation
same,prevention of lethality (Kaplan-Meier survival),"[2]; 50 mg/kg orally daily from day 4, FIG. 2",highly effective in the prevention of lethality
same,small bowel mucosal mass,"[2]; 50 mg/kg, p<0.01 vs control, FIG. 4B",76±21 mg/10 cm segment
same,levels of bacteremia and endotoxemia,"[2]; day 6 after first cyclophosphamide dose, FIG. 3",Reduced levels
same,histopathologic injury score of gastrointestinal mucosa,"[2]; scale 0-4, 50 mg/kg, day 8, p=0.02 vs control, FIG. 4A",0.6±0.1
same,inhibition of NF-κB transcriptional activity in the presence of ERβ,ERβ,little inhibition

# Source: US20050256132A1, “Use of ER selective NF-kB inhibitors for the treatment of sepsis” (priority 2003, published 2005)
